Laboratory results published in the NIST ThermoML archive (doi:10.1016/j.fluid.2005.09.019).

What was measured:
[1] = Crystal; visual observation
[2] = wn = mass fraction of the nth substance listed; details: Fluid (supercritical or subcritical phases), Other PVT measurement

O=C(OCCC(F)(F)C(F)(F)C(F)(F)C(F)(F)C(F)(F)C(F)(F)F)c1cccc(-c2cccc(C(=O)OCCC(F)(F)C(F)(F)C(F)(F)C(F)(F)C(F)(F)C(F)(F)F)c2)c1
Details | Normal melting temperature [°C]
[1] | 72.00

O=C(OCCC(F)(F)C(F)(F)C(F)(F)C(F)(F)C(F)(F)C(F)(F)F)c1cccc(-c2cccc(C(=O)OCCC(F)(F)C(F)(F)C(F)(F)C(F)(F)C(F)(F)C(F)(F)F)c2)c1 + O=C=O
[2]
Details | mass density [kg/m3]
294.55 K, 5980 kPa, w1 = 0.135 | 744
295.05 K, 6070 kPa, w1 = 0.116 | 768
295.15 K, 6170 kPa, w1 = 0.016 | 745
295.55 K, 6240 kPa, w1 = 0.279 | 976
295.95 K, 6280 kPa, w1 = 0.405 | 1054
296.45 K, 6310 kPa, w1 = 0.334 | 950
296.55 K, 6380 kPa, w1 = 0.206 | 904
298.35 K, 6620 kPa, w1 = 0.206 | 900
298.75 K, 6590 kPa, w1 = 0.116 | 782
299.15 K, 6730 kPa, w1 = 0.405 | 1049
299.75 K, 6610 kPa, w1 = 0.273 | 933
299.75 K, 6900 kPa, w1 = 0.135 | 737
299.95 K, 6860 kPa, w1 = 0.279 | 962
300.55 K, 6930 kPa, w1 = 0.334 | 967
301.15 K, 6900 kPa, w1 = 0.273 | 932
301.95 K, 7070 kPa, w1 = 0.279 | 954
302.75 K, 7520 kPa, w1 = 0.016 | 689
303.15 K, 7240 kPa, w1 = 0.334 | 957
303.35 K, 7310 kPa, w1 = 0.116 | 763
303.35 K, 7340 kPa, w1 = 0.135 | 723
303.35 K, 7550 kPa, w1 = 0.206 | 880
303.45 K, 7240 kPa, w1 = 0.273 | 887
304.75 K, 8270 kPa, w1 = 0.279 | 952
305.35 K, 7520 kPa, w1 = 0.273 | 827
305.85 K, 7660 kPa, w1 = 0.273 | 782
305.95 K, 7620 kPa, w1 = 0.016 | 654
312.75 K, 10240 kPa, w1 = 0.116 | 752
318.45 K, 12270 kPa, w1 = 0.135 | 711
320.65 K, 13200 kPa, w1 = 0.279 | 925
321.05 K, 12890 kPa, w1 = 0.334 | 931
321.05 K, 13270 kPa, w1 = 0.206 | 856
322.65 K, 11510 kPa, w1 = 0.016 | 622
327.85 K, 14660 kPa, w1 = 0.405 | 1001
330.05 K, 15000 kPa, w1 = 0.405 | 999
332.45 K, 15960 kPa, w1 = 0.135 | 688
338.55 K, 17380 kPa, w1 = 0.116 | 719
342.75 K, 18790 kPa, w1 = 0.206 | 816
344.35 K, 18760 kPa, w1 = 0.334 | 898
345.35 K, 18820 kPa, w1 = 0.405 | 969
346.15 K, 19720 kPa, w1 = 0.279 | 879
347.75 K, 16790 kPa, w1 = 0.016 | 585
348.55 K, 19620 kPa, w1 = 0.135 | 665
360.65 K, 22690 kPa, w1 = 0.405 | 949
362.85 K, 23000 kPa, w1 = 0.206 | 777
363.55 K, 22380 kPa, w1 = 0.116 | 673
363.65 K, 23000 kPa, w1 = 0.334 | 862
363.75 K, 19380 kPa, w1 = 0.016 | 554
368.05 K, 24130 kPa, w1 = 0.279 | 835
369.65 K, 24030 kPa, w1 = 0.135 | 639

O=C(OCCC(F)(F)C(F)(F)C(F)(F)C(F)(F)C(F)(F)C(F)(F)F)c1ccccc1-c1ccccc1C(=O)OCCC(F)(F)C(F)(F)C(F)(F)C(F)(F)C(F)(F)C(F)(F)F + O=C=O
[2]
Details | mass density [kg/m3]
294.65 K, 5000 kPa, w1 = 0.652 | 892
294.65 K, 5620 kPa, w1 = 0.36 | 681
294.85 K, 5930 kPa, w1 = 0.063 | 606
295.15 K, 6040 kPa, w1 = 0.13 | 668
295.55 K, 6170 kPa, w1 = 0.021 | 663
297.35 K, 6380 kPa, w1 = 0.13 | 688
297.45 K, 6110 kPa, w1 = 0.36 | 690
297.75 K, 5170 kPa, w1 = 0.652 | 896
298.65 K, 5930 kPa, w1 = 0.515 | 968
298.75 K, 6310 kPa, w1 = 0.288 | 798
298.85 K, 6590 kPa, w1 = 0.063 | 640
299.15 K, 6690 kPa, w1 = 0.021 | 643
303.05 K, 7110 kPa, w1 = 0.13 | 662
303.35 K, 7210 kPa, w1 = 0.063 | 617
303.35 K, 7380 kPa, w1 = 0.021 | 601
304.65 K, 7210 kPa, w1 = 0.288 | 781
307.95 K, 7210 kPa, w1 = 0.515 | 949
309.35 K, 8200 kPa, w1 = 0.021 | 558
309.75 K, 7970 kPa, w1 = 0.36 | 739
309.95 K, 8030 kPa, w1 = 0.063 | 579
309.95 K, 8070 kPa, w1 = 0.288 | 771
311.95 K, 8580 kPa, w1 = 0.13 | 630
314.35 K, 7140 kPa, w1 = 0.652 | 966
317.85 K, 8860 kPa, w1 = 0.515 | 929
318.85 K, 9510 kPa, w1 = 0.288 | 750
320.05 K, 10210 kPa, w1 = 0.36 | 724
321.05 K, 10870 kPa, w1 = 0.202 | 594
323.85 K, 11580 kPa, w1 = 0.13 | 613
327.05 K, 11550 kPa, w1 = 0.021 | 518
330.25 K, 13000 kPa, w1 = 0.063 | 561
331.85 K, 12530 kPa, w1 = 0.36 | 712
332.75 K, 12890 kPa, w1 = 0.288 | 728
333.95 K, 9800 kPa, w1 = 0.652 | 940
334.55 K, 12170 kPa, w1 = 0.515 | 899
336.45 K, 14580 kPa, w1 = 0.202 | 578
341.45 K, 15270 kPa, w1 = 0.36 | 701
346.35 K, 16510 kPa, w1 = 0.13 | 581
349.25 K, 15310 kPa, w1 = 0.021 | 490
349.95 K, 17000 kPa, w1 = 0.063 | 536
350.65 K, 15520 kPa, w1 = 0.515 | 870
352.75 K, 17100 kPa, w1 = 0.288 | 697
353.75 K, 12800 kPa, w1 = 0.652 | 918
354.55 K, 18170 kPa, w1 = 0.202 | 565
354.95 K, 17650 kPa, w1 = 0.36 | 681
367.35 K, 20380 kPa, w1 = 0.13 | 553
368.25 K, 17510 kPa, w1 = 0.021 | 458
368.45 K, 18830 kPa, w1 = 0.515 | 840
369.05 K, 20170 kPa, w1 = 0.288 | 675
369.25 K, 19820 kPa, w1 = 0.36 | 659
370.45 K, 15210 kPa, w1 = 0.652 | 900
371.85 K, 20310 kPa, w1 = 0.063 | 503
371.85 K, 21240 kPa, w1 = 0.202 | 542
